Like-named read-outs stand apart in the source and are kept apart here.
Key:
[1] = type: physicochemical; conditions: for Viscosity, Initial: Epoxy Composition 3 (Table 8) with the named Lewis Acid Additive, before storage; for 7d (increase in viscosity in %) / Viscosity, 7d / 15 d (increase in viscosity in %) / Viscosity, 15 d: Epoxy Composition 3 with the named Lewis Acid Additive; for 7d (increase in viscosity in %) / Viscosity, 7d: stored at 50°C for 7 days; for 15 d (increase in viscosity in %) / Viscosity, 15 d: stored at 50°C for 15 days
Experimental: The A1 value gave the viscosity in Pascal seconds.
The epoxy resin was put in a Speedmixer cup (Hauschild Engineering), the thixotrope and dicyandiamide were added, and the raw materials mixed at 3500 s^-1 for 5 min. The accelerator and the additive were then weighed into the resin formulation and the mixture again speedmixed at 3500 s^-1 for 15 s. Formulations were stored at 50 °C. The complex viscosity was determined after 7 d and 15 d. Table 9. Viscosity of adhesive formulations stored at 50°C for 7 and 15 days in Pa*s.

[2] = cited from earlier work

Row | SMILES | Viscosity, Initial [1] | 7d (increase in viscosity in %) [1] | Viscosity, 7d [1] | 15 d (increase in viscosity in %) [1] | Viscosity, 15 d [1] | solubility in water ([2]; at 25°C) | solubility in water ([2]; at 25°C, printed in brackets beside the g/100g value) | solubility in water ([2]; at 17.8°C)
1 | CCCCCCCCCCCCCCCCCC(=O)[O-].[Al+3].[OH-].[OH-] [AMS, Aluminum monostearate] | 53 Pa*s | 245% | 130 Pa*s | 337% | 179 Pa*s | – | – | –
2 | [Cl-].[Cl-].[Zn+2] [ZnCl2, Zinc chloride] | 54 Pa*s | 140% | 76 Pa*s | 292% | 158 Pa*s | 432 g/100g | 4320 g/L | –
3 | [O]=[Zn] [ZnO, Zinc oxide] | 48 Pa*s | 233% | 112 Pa*s | 17235% | 8273 Pa*s | – | – | solubility in water 0.0004% at 17.8 °C
